SMILES strings stand for the structures. Where only a bound is given, the exact number is not on record here.

This assay addresses T1, human CXCR3 (N-delta 4) (Homo sapiens, UniProt P49682).
T1 construct: CD8 leader (N); Flag tag; expressed in transfected cells; membranes
T1 sequence (P49682 5-368 limits assumed): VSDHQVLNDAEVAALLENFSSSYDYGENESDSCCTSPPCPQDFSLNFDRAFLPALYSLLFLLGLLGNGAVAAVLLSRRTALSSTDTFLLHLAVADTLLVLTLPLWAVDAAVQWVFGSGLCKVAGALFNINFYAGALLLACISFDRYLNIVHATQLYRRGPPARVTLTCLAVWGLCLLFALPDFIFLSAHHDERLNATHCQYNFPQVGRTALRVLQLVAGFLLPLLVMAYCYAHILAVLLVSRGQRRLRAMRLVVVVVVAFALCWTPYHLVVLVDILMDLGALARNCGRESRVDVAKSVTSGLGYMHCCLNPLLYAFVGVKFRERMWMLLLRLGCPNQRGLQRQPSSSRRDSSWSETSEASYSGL
Nature of the assay: Human CXCR3 (N-delta 4) Scintillation Proximity Assay (SPA), [125I] IP-10 binding. Conditions: IC50 rating; [125I] IP-10 displacement, Ba/F3-hCXCR3 (N-delta 4) membranes. The text has this:
The inventive compounds can readily be evaluated to determine activity at The CXCR3 receptors by known methods, such as, for example, Development of Human CXCR3 (N-delta 4) Binding Assay.
Cloning and Expression of Human CXCR3 (N-Delta 4):
The DNA encoding human CXCR3 was cloned by PCR using human genomic DNA (Promega, Madison, Wis.) as a template. The PCR primers were designed based on the published sequence of human orphan receptor GPR9 (1) with incorporated restriction sites, a Kozak consensus sequence, CD8 leader and Flag tag. The PCR product was subcloned into the mammalian expression vector pME18Sneo, a derivative of the SR-alpha expression vector (designated as pME18Sneo-hCXCR3 (N-delta 4).
IL-3-dependent mouse pro-B cells Ba/F3 were transfected by electroporation in 0.4 ml Dulbecco's PBS containing 4×10^6 cells with 20 μg of pME18Sneo-hCXCR3 (N-delta 4) plasmid DNA. Cells were pulsed at 400 Volts, 100 OHMs, 960 μFd. The transfected cells were under selection with 1 mg/ml G418 (Life Technologies, Gaithersburg, Md.). G418-resistant Ba/F3 clones were screened for CXCR3 expression by specific binding of [^125I] IP-10 (NEN Life Science Products, Boston, Mass.).
Preparation of Ba/F3-hCXCR3 (N-Delta 4) Membranes
Ba/F3 cells expressing human CXCR3 (N-delta 4) were pelleted and resuspended in the lysis buffer containing 10 mM HEPES, pH 7.5 and Complete® protease inhibitors (1 tablet per 100 ml) (Boehringer Mannheim, Indianapolis, Ind.) at a cell density of 20×10^6 cells per ml. After 5 minutes incubation on ice, cells were transferred to 4639 cell disruption bomb (Parr Instrument, Moline, Ill.) and applied with 1,500 psi of nitrogen for 30 minutes on ice. Large cellular debris was removed by centrifugation at 1,000× g. Cell membrane in the supernatant was sedimented at 100,000× g. The membrane was resuspended in the lysis buffer supplemented with 10% sucrose and stored at −80° C. Total protein concentration of the membrane was determined by BCA method from Pierce (Rockford, Ill.).
Human CXCR3 (N-Delta 4) Scintillation Proximity Assay (SPA)
For each assay point, 2 μg of membrane was preincubated for 1 hr with 300 μg wheat germ agglutinin (WGA) coated SPA beads (Amersham, Arlington Heights, Ill.) in the binding buffer (50 mM HEPES, 1 mM CaCl2, 5 mM MgCl2, 125 mM NaCl, 0.002% NaN3, 1.0% BSA) at room temperature. The beads were spun down, washed once, resuspended in the binding buffer and transferred to a 96-well Isoplate (Wallac, Gaithersburg, Md.). 25 pM of [^125I] IP-10 with tested compounds in a series of titration were added to start the reaction. After 3 hr reaction at room temperature, the amount of [^125I] IP-10 bound to the SPA beads was determined with a Wallac 1450 Microbeta counter.
As for `CC[C@H]1CN(c2ncc(C3=NCCN3)cc2Cl)CCN1C1CCN([C@H](CO)c2ccc(Cl)cc2)CC1` [Compound 64], the IC50 (usually the concentration needed to halve the response being measured) is below 25 nM.

With `CC[C@H]1CN(c2ncc(C3=NCCN3)cc2Cl)CCN1C1CCN(C(=O)c2ccc(Cl)cc2)CC1` [Compound 58], the IC50 is below 25 nM.

In turn, `CC[C@H]1CN(c2ncc(-c3nc(C(O)C(F)(F)F)cn3C(O)C(F)(F)F)cc2Cl)CCN1C1CCN(C(=O)c2ccc(Cl)cc2)CC1` (stereo partly shown) [Compound 163] returned an IC50 above 100 nM.

`CC[C@H]1CN(c2ncc(-c3ncc[nH]3)cc2Cl)CCN1C1CCN([C@H](C(=O)N(C)C)c2ccc(Cl)cc2)CC1` [Compound 150] came in with an IC50 above 100 nM.

With `CC[C@H]1CN(c2ncc(-c3ncc[nH]3)cc2Cl)CCN1C1CCN(Cc2ccc(C#CC(C)(C)C)cc2)CC1` [Compound 25], the IC50 is below 25 nM.

`CC[C@H]1CN(c2ncc(-c3ncc[nH]3)cc2Cl)CCN1C1CCN(C(=O)c2ccc(OC(F)(F)F)cc2)CC1` [Compound 126] registered an IC50 of 25 to 100 nM.

`CC[C@H]1CN(c2ncc(-c3ncc[nH]3)cc2Cl)CCN1C1CCN(Cc2ccc(Cl)cc2C(=O)OC)CC1` [Compound 50] returned an IC50 below 25 nM.

Take `CC[C@H]1CN(c2ncc(-c3ncc[nH]3)cc2Cl)CCN1C1CCN([C@H](CO)c2ccc(Cl)cc2)CC1` [Compound 90]: the IC50 was below 25 nM.

In the case of `CC[C@H]1CN(c2ncc(-c3nc(C(O)C(F)(F)F)c[nH]3)cc2Cl)CCN1C1CCN(C(=O)c2ccc(Cl)cc2)CC1` (stereo partly shown) [Compound 125], the IC50 lay in the range of 25 to 100 nM.

For `CC[C@H]1CN(c2ncc(-c3ncc[nH]3)cc2Cl)CCN1C1CCN(C(=O)c2ccc(-n3cncn3)cc2)CC1` [Compound 135], the IC50 was above 100 nM.

`CCOC1(C)NN=C(c2cnc(N3CCN(C4CCN(C(=O)c5ccc(Br)cc5)CC4)[C@@H](CC)C3)c(Cl)c2)O1` (stereo partly shown) [Compound 158]: the IC50 is above 100 nM.

For the molecule `CC[C@H]1CN(c2ncc(C3=NCCN3)cc2Cl)CCN1C1CCN(Cc2ccc(Cl)cc2C(=O)OC)CC1` [Compound 61], the IC50 was below 25 nM.

The molecule `CC[C@H]1CN(c2ncc(-c3ncc[nH]3)cc2Cl)CCN1C1CCN(Cc2ccc(Br)cc2)CC1` [Compound 2] registered an IC50 below 25 nM.

Turning to `CC[C@H]1CN(c2ncc(-c3ncc[nH]3)cc2Cl)CCN1C1(C)CCN(Cc2ccc(Cl)cc2C(=O)NC)CC1` [Compound 130], the IC50 fell in the range of 25 to 100 nM.

The molecule `CC[C@H]1CN(c2ncc(-c3ncc[nH]3)cc2Cl)CCN1C1CCN(Cc2ccc(-c3csnn3)cc2)CC1` [Compound 22] returned an IC50 below 25 nM.

For `CC[C@H]1CN(c2ncc(-c3ncc[nH]3)cc2Cl)CCN1C1CCN(C(=O)c2ccc(-n3cccc3)cc2)CC1` [Compound 67], the IC50 is below 25 nM.

`CC[C@H]1CN(c2ncc(-c3nnc(N)o3)cc2C(F)(F)F)[C@H](C)CN1C1CCN(Cc2ccc(OC(F)(F)F)cc2)CC1` [Compound 175] returned an IC50 below 25 nM.

`CC[C@H]1CN(c2ncc(-c3nnc(C)o3)cc2Cl)CCN1C1CCN(Cc2ccc(Cl)cc2F)CC1` [Compound 70] showed an IC50 below 25 nM.

The molecule `CC[C@H]1CN(c2ncc(C3=NCCN3)cc2Cl)CCN1C1CCN(C(=O)c2ccc(C#N)cc2)CC1` [Compound 87] returned an IC50 below 25 nM.

For the molecule `CC[C@H]1CN(c2ncc(C3=NCCN3)cc2Cl)CCN1C1CCN(C(=O)c2ccc(Br)cc2)CC1` [Compound 56], the concentration for half-maximal inhibition (IC50) was below 25 nM.

As to `CC[C@H]1CN(c2ncc(-c3cnc(N)s3)cc2Cl)CCN1C1CCN(C(=O)c2ccc(Cl)cc2)CC1` [Compound 167], the IC50 is above 100 nM.

`CC[C@H]1CN(c2ncc(-c3nnc(N)o3)cc2C)[C@H](C)CN1C1CCN(Cc2ccc(OC(F)(F)F)cc2)CC1` [Compound 174] gave an IC50 below 25 nM.

`CC[C@H]1CN(c2ncc(C3=NCCN3)cc2Cl)CCN1C1CCN(Cc2ccc(C#CC(C)(C)O)cc2)CC1` [Compound 54] came in with an IC50 below 25 nM.

On to `CC[C@H]1CN(c2ncc(-c3ncc[nH]3)cc2Cl)CCN1C1CCN(Cc2ccc(C#N)cc2)CC1` [Compound 17], for which the IC50 is below 25 nM.

For `CC[C@H]1CN(c2ncc(-c3ncc[nH]3)cc2Cl)CCN1C1CCN(Cc2ccc(Cl)cc2F)CC1` [Compound 4], the IC50 was below 25 nM.

In turn, `CC[C@H]1CN(c2c(F)cc(-c3ncc[nH]3)cc2C(F)(F)F)CCN1C1CCN(Cc2ccc(Cl)cc2F)CC1` [Compound 59] had an IC50 below 25 nM.

Molecule `CC[C@H]1CN(c2ncc(C3=NCCN3)cc2Cl)CCN1C1CCN(C(=O)c2ccc(Cl)nc2N)CC1` [Compound 42] returned an IC50 below 25 nM.

As to `C[C@H]1CN(c2ncc(-c3nc4ccccc4[nH]3)cc2Cl)CCN1C1CCN(Cc2ccc(Cl)cc2)CC1` [Compound 110], the half-maximal inhibitory concentration (IC50) was in the range of 25 to 100 nM.

The molecule `CCOC(CNC(=N)c1cc(Cl)ccc1CN1CCC(N2CCN(c3ncc(-c4ncc[nH]4)cc3Cl)C[C@@H]2CC)CC1)OCC` [Compound 21] yielded an IC50 below 25 nM.

The molecule `CC[C@H]1CN(c2ncc(-c3ncc[nH]3)cc2Cl)CCN1C1CCN(C(=O)c2ccc(C#CC(C)(C)O)cc2)CC1` [Compound 113] gave an IC50 of 25 to 100 nM.

The molecule `CC[C@H]1CN(c2ncc(-c3ncc[nH]3)cc2Cl)CCN1C1CCN([C@H](C(=O)OC)c2ccc(Br)cc2)CC1` [Compound 127] came in with an IC50 of 25 to 100 nM.

`CC[C@H]1CN(c2ncc(-c3ncc[nH]3)cc2Cl)CCN1C1CCN([C@H](C)c2ccc(Cl)cc2)CC1` [Compound 5] showed an IC50 below 25 nM.

`CC[C@H]1CN(c2ncc(-c3ncc[nH]3)cc2Cl)CCN1C1CCN([C@H](C(=O)NCC(F)(F)F)c2ccc(Cl)cc2)CC1` [Compound 155] had an IC50 above 100 nM.

`CC[C@H]1CN(c2ncc(-c3nnc(CO)o3)cc2Cl)CCN1C1CCN(C(CO)c2ccc(Cl)cc2)CC1` (stereo partly shown) [Compound 39] came in with an IC50 below 25 nM.

Take `CC[C@H]1CN(c2ncc(-c3nnc(CO)o3)cc2Cl)CCN1C1CCN(Cc2ccc(Cl)cc2F)CC1` [Compound 106]: the IC50 fell in the range of 25 to 100 nM.

In turn, `C[C@@H]1CN(C2CCN(Cc3ccc(Cl)cc3F)CC2)[C@@H](C)CN1c1ncc(-c2ncc[nH]2)cc1Cl` [Compound 79] displayed an IC50 below 25 nM.

Regarding `CC[C@H]1CN(c2ncc(-c3ncc[nH]3)cc2Cl)CCN1C1CCN([C@H](C(=O)NC)c2ccc(Cl)cc2)CC1` [Compound 166], the IC50 is above 100 nM.

With `CC[C@H]1CN(c2ncc(-c3nnn[nH]3)cc2Cl)CCN1C1CCN(Cc2ccc(Cl)cc2F)CC1` [Compound 169], the IC50 was above 100 nM.

Molecule `CC[C@H]1CN(c2ncc(C3=NCCN3)cc2Cl)CCN1C1CCN(C(=O)c2ccc(Cl)cc2C(N)=NO)CC1` [Compound 93] came in with an IC50 below 25 nM.

Take `CC[C@H]1CN(c2ncc(C3=NCCN3C(=O)c3ccc(C#N)cc3)cc2Cl)CCN1C1CCN(C(=O)c2ccc(C#N)cc2)CC1` [Compound 161]: the IC50 is above 100 nM.

In turn, `CC[C@H]1CN(c2ncc(-c3ncc[nH]3)cc2Cl)CCN1C1CCN(C(=O)c2ccc(C(=O)OC)cc2)CC1` [Compound 71] gave an IC50 below 25 nM.

For `CC[C@H]1CN(c2ncc(-c3ncc[nH]3)cc2Cl)CCN1C1CCN(Cc2ccc(I)cc2)CC1` [Compound 3], the IC50 is below 25 nM.

The molecule `CC[C@H]1CN(c2ncc(C3=NCCN3)cc2Cl)CCN1C1CCN(Cc2ccc(C#CC(C)(C)NS(N)(=O)=O)cc2)CC1` [Compound 131] returned an IC50 of 25 to 100 nM.

Consider `CC[C@H]1CN(c2ncc(-c3nnco3)cc2Cl)CCN1C1CCN(C(=O)c2ccc(Br)cc2)CC1` [Compound 129], for which the IC50 is 25 to 100 nM.

Regarding `CC[C@H]1CN(c2ncc(-c3ncc[nH]3)cc2Cl)CCN1[C@@H]1CCN(Cc2ccc(Cl)cc2C(=O)NC)C[C@H]1O` [Compound 170], the IC50 was above 100 nM.

As to `CC[C@H]1CN(c2ncc(-c3ncc[nH]3)cc2Cl)CCN1C1CCN(Cc2ccc3[nH]ccc3c2)CC1` [Compound 138], the half-maximal inhibitory concentration (IC50) was above 100 nM.

Values taken from patent US7417045B2, “Heterocyclic substituted pyridine or phenyl compounds with CXCR3 antagonist activity” (Schering Corporation, priority 2005, dated 2008).
